According to PubChem BioAssay (NCI):
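Cultured in 96-well plates, cells were exposed to test compound for 48 hours across five concentrations. The concentration for full growth arrest is given as TGI.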

Key:
Experiment in all cases: growth of human tumour cells (NCI), 48 h
CAKI-1 renal = system: CAKI-1 renal
DLD-1 colon = system: DLD-1 colon
DMS 114 small cell lung = system: DMS 114 small cell lung
DMS 273 small cell lung = system: DMS 273 small cell lung
HOP-62 NSCLC = system: HOP-62 NSCLC
KM20L2 colon = system: KM20L2 colon
LXFL 529 NSCLC = system: LXFL 529 NSCLC
M19-MEL melanoma = system: M19-MEL melanoma
RPMI-8226 leukemia = system: RPMI-8226 leukemia
SNB-78 CNS = system: SNB-78 CNS
TK-10 renal = system: TK-10 renal

Compound | TGI (CAKI-1 renal) [µM] | TGI (DLD-1 colon) [µM] | TGI (DMS 114 small cell lung) [µM] | TGI (DMS 273 small cell lung) [µM] | TGI (HOP-62 NSCLC) [µM] | TGI (KM20L2 colon) [µM] | TGI (LXFL 529 NSCLC) [µM] | TGI (M19-MEL melanoma) [µM] | TGI (RPMI-8226 leukemia) [µM] | TGI (SNB-78 CNS) [µM] | TGI (TK-10 renal) [µM]
O=C(/C=C(\O)C(=O)O)/C=C(\O)c1ccc(Cl)cc1 | > 100 | > 100 | > 100 | > 100 | > 100 | > 100 | > 100 | > 100 | > 100 | > 100 | > 100
Cn1c(=O)c(C2c3ccccc3Oc3c2c(=O)n(C)c2ccccc32)c(O)c2ccccc21 (configuration not stated) | > 100 | > 100 | > 100 | > 100 | > 100 | > 100 | > 100 | > 100 | > 100 | > 100 | 83.8
CCOc1cccc2cccnc12 |  | > 100 | > 100 |  | > 100 | > 100 | > 100 |  | > 100 |  | > 100
COc1ccccc1NC(=O)CC(=O)NNCC(=O)Nc1nc(-c2ccccc2)cs1 |  | > 100 | > 100 | > 100 | > 100 | > 100 | > 100 | > 100 | > 100 | > 100 | > 100
CCOC(=O)C(=C=Cc1cccs1)C(=O)c1ccccc1 |  | 27.8 |  | 31.3 | 33.9 |  | 28.4 | 32.1 | 44.5 | 47.5 | 28.5
